In PubChem BioAssay AID276 (DTP/NCI, 2004):
Where “and” joins values, the source holds several entries; their conditions need not be identical. Equal values may be shown once. Toxic doses and inconclusive results are not listed. How the source made its calls: active means survival T/C of 150% or more; inactive means T/C below 125% in these data.

System: B6C3F1 mice, Lewis lung carcinoma iv, survival T/C
Assay: NCI In Vivo Anticancer Drug Screen. Data for tumor model Lewis Lung Carcinoma (intravenous) in B6C3F1 mice
Conditions: endpoint: median survival time, schedule: Q01DX009 (ip), higher = longer survival
Outline: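 Mice carrying transplanted tumors received test compound; survival in the treated group was divided by that of the vehicle-treated control group to give the T/C value.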

[1] = dose: 3.12 mg/kg/injection, vehicle: saline
[2] = dose: 6.25 mg/kg/injection, vehicle: saline
[3] = dose: 25.0 mg/kg/injection, vehicle: saline
[4] = dose: 50.0 mg/kg/injection, vehicle: saline
[5] = dose: 25.0 mg/kg/injection, vehicle: saline with Tween-80
[6] = dose: 50.0 mg/kg/injection, vehicle: saline with Tween-80
[7] = dose: 100.0 mg/kg/injection, vehicle: saline with Tween-80
[8] = dose: 200.0 mg/kg/injection, vehicle: saline with Tween-80
[9] = dose: 400.0 mg/kg/injection, vehicle: saline with Tween-80
[10] = dose: 12.5 mg/kg/injection, vehicle: saline
[11] = dose: 100.0 mg/kg/injection, vehicle: saline
[12] = dose: 12.5 mg/kg/injection, vehicle: saline with Tween-80
[13] = dose: 200.0 mg/kg/injection, vehicle: saline
[14] = dose: 400.0 mg/kg/injection, vehicle: saline
[15] = dose: 6.25 mg/kg/injection, vehicle: saline with Tween-80
[16] = dose: 25.0 mg/kg/injection, vehicle: Klucel (hydroxypropylcellulose) (HPC)

Measured: T/C

COc1cccc2c1C(=O)c1c(O)c3c(c(O)c1C2=O)CC(O)(C(=O)CO)CC3OC1CC(N)C(O)C(C)O1 (configuration not stated)
inactive: dose: 1.56 mg/kg/injection, vehicle: saline 110 % of control | dose: 1.87 mg/kg/injection, vehicle: water 107 % of control | [1] 109 % of control | dose: 3.75 mg/kg/injection, vehicle: water 107 % of control | dose: 4.5 mg/kg/injection, vehicle: water 101 % of control | [2] 123 % of control | dose: 7.5 mg/kg/injection, vehicle: water 109 % of control | dose: 9.0 mg/kg/injection, vehicle: water 112 % of control | dose: 15.0 mg/kg/injection, vehicle: water 119 % of control | dose: 18.0 mg/kg/injection, vehicle: water 123 % of control | [3] 119 % of control | [4] 90 % of control

Nc1nc(-c2ccccc2)c(Br)c(=O)[nH]1
inactive: [5] 114 % of control | [6] 107 % of control | [7] 110 % of control | [8] 92 % of control and 121 % of control | [9] 100 % of control and 118 % of control | dose: 800.0 mg/kg/injection, vehicle: saline with Tween-80 100 % of control

O=C(O)CC(=O)O.[NH-]CC[NH-].[Pt+2]
inactive: dose: 1.56 mg/kg/injection, vehicle: dextrose 108 % of control | dose: 3.12 mg/kg/injection, vehicle: dextrose 107 % of control and 120 % of control | dose: 6.25 mg/kg/injection, vehicle: dextrose 105 % of control and 109 % of control | dose: 12.5 mg/kg/injection, vehicle: dextrose 102 % of control and 119 % of control

CC(=O)Oc1c[nH]c(=O)[nH]c1=O
inactive: dose: 12.5 mg/kg/injection, vehicle: distilled water + Tween-80 102 % of control | dose: 25.0 mg/kg/injection, vehicle: distilled water + Tween-80 95 % of control | dose: 50.0 mg/kg/injection, vehicle: distilled water + Tween-80 92 % of control | dose: 100.0 mg/kg/injection, vehicle: distilled water + Tween-80 100 % of control | dose: 200.0 mg/kg/injection, vehicle: distilled water + Tween-80 95 % of control | dose: 400.0 mg/kg/injection, vehicle: distilled water + Tween-80 94 % of control

Oc1ccc(CCl)c2cccnc12
inactive: [10] 105 % of control | [3] 103 % of control | [4] 103 % of control | [11] 98 % of control

CCCCC(=O)OCC1OC(n2cnc3c(=S)nc[nH]c32)C(OC(=O)CCCC)C1OC(=O)CCCC (configuration not stated)
inactive: [12] 99 % of control | [5] 100 % of control

COc1cc2c(c(OC)c1OC)-c1ccc(OC)c(=O)cc1[C@@H](NC(=O)CCl)CC2
inactive: dose: 0.03 mg/kg/injection, vehicle: saline with Tween-80 114 % of control | dose: 0.06 mg/kg/injection, vehicle: saline with Tween-80 102 % of control | dose: 0.12 mg/kg/injection, vehicle: saline with Tween-80 114 % of control | dose: 0.25 mg/kg/injection, vehicle: saline with Tween-80 106 % of control

N#C[C@H](OC1OC(COC2OC(CO)C(O)C(O)C2O)C(O)C(O)C1O)c1ccccc1 (some centres not stated)
inactive: [3] 111 % of control | [4] 95 % of control | [11] 95 % of control | [13] 92 % of control | [14] 97 % of control | dose: 800.0 mg/kg/injection, vehicle: saline 101 % of control

CC(=O)Oc1c(C)[nH]ccc1=O
inactive: [3] 97 % of control | [4] 96 % of control | [11] 96 % of control | [13] 103 % of control | [14] 114 % of control

CN=C(N)N/N=C(\C)c1ccc2c(c1)Cc1cc(/C(C)=N/NC(N)=NC)ccc1-2
inactive: dose: 0.37 mg/kg/injection, vehicle: saline with Tween-80 95 % of control | dose: 0.75 mg/kg/injection, vehicle: saline with Tween-80 97 % of control | dose: 1.5 mg/kg/injection, vehicle: saline with Tween-80 94 % of control | dose: 3.0 mg/kg/injection, vehicle: saline with Tween-80 100 % of control

CN(C)CCOc1ccc2c(c1)C/C(=C/c1ncc([N+](=O)[O-])n1C)C2=O
inactive: [15] 102 % of control | [12] 88 % of control | [5] 104 % of control | [6] 100 % of control

O=[Te]=O
inactive: dose: 3.0 mg/kg/injection, vehicle: suspension in saline 121 % of control | [1] 102 % of control | dose: 6.0 mg/kg/injection, vehicle: suspension in saline 101 % of control | [2] 100 % of control | dose: 12.0 mg/kg/injection, vehicle: suspension in saline 101 % of control | [10] 106 % of control | dose: 24.0 mg/kg/injection, vehicle: suspension in saline 106 % of control | dose: 48.0 mg/kg/injection, vehicle: suspension in saline 115 % of control

COc1cc(Cl)ccc1C
inactive: [12] 102 % of control | [5] 98 % of control | [6] 100 % of control | [7] 97 % of control | [8] 97 % of control

CCCCCC#CC1OC12CCCCC2 (configuration not stated)
inactive: [6] 102 % of control | [7] 100 % of control | [8] 88 % of control | [9] 91 % of control

N#C[Se-].c1ccc([Te+](c2ccccc2)c2ccccc2)cc1
inactive: dose: 1.56 mg/kg/injection, vehicle: Klucel (hydroxypropylcellulose) (HPC) 97 % of control | dose: 3.12 mg/kg/injection, vehicle: Klucel (hydroxypropylcellulose) (HPC) 97 % of control | dose: 6.25 mg/kg/injection, vehicle: Klucel (hydroxypropylcellulose) (HPC) 97 % of control | dose: 12.5 mg/kg/injection, vehicle: Klucel (hydroxypropylcellulose) (HPC) 100 % of control | [16] 86 % of control

N=c1c(C(=O)OCc2ccccc2)ncc(CCl)n1O
inactive: [5] 96 % of control | [6] 97 % of control | [7] 109 % of control | [8] 92 % of control

Oc1c(Cl)cc(Cl)cc1C=NCCSc1ccc(Cl)cc1
inactive: [16] 94 % of control and 105 % of control | dose: 50.0 mg/kg/injection, vehicle: Klucel (hydroxypropylcellulose) (HPC) 98 % of control and 101 % of control | dose: 100.0 mg/kg/injection, vehicle: Klucel (hydroxypropylcellulose) (HPC) 97 % of control and 101 % of control | dose: 200.0 mg/kg/injection, vehicle: Klucel (hydroxypropylcellulose) (HPC) 97 % of control and 105 % of control | dose: 400.0 mg/kg/injection, vehicle: Klucel (hydroxypropylcellulose) (HPC) 101 % of control

NC(CNC(=O)CBr)C(=O)O (configuration not stated)
inactive: dose: 6.25 mg/kg/injection, vehicle: water 102 % of control | dose: 12.5 mg/kg/injection, vehicle: water 95 % of control | dose: 25.0 mg/kg/injection, vehicle: water 109 % of control | dose: 50.0 mg/kg/injection, vehicle: water 109 % of control

COC1/C=C/C=C(/C)Cc2cc(O)c(Cl)c(c2)N(C)C(=O)CC(OC(=O)C(C)C)C2(C)OC2C(C)C2CC1(O)NC(=O)O2 (configuration not stated)
inactive: dose: 0.06 mg/kg/injection, vehicle: saline + alcohol 101 % of control | dose: 0.12 mg/kg/injection, vehicle: saline + alcohol 96 % of control | dose: 0.25 mg/kg/injection, vehicle: saline + alcohol 100 % of control | dose: 0.5 mg/kg/injection, vehicle: saline + alcohol 100 % of control

O=C1[C@H]2CCC[C@H]2[C@H]2CCC[C@@H]12
inactive: [15] 95 % of control | [12] 104 % of control | [5] 98 % of control | [6] 95 % of control | [7] 91 % of control | [8] 102 % of control
